What was measured:
[1] = biological target: T1, ICE (Homo sapiens, UniProt P29466); assay: Enzyme assay with UV-visible substrate (ICE inhibition); assay type: biochemical; conditions: Succinyl-Tyr-Val-Ala-Asp-p-Nitroanilide substrate
T1 sequence (P29466 120-297 limits assumed): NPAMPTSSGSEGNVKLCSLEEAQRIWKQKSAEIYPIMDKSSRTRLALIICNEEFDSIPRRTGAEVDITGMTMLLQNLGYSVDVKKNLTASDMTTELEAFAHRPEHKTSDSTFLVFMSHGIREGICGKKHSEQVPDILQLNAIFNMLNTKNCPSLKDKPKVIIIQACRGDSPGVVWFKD
T1 sequence (P29466 317-404 limits assumed): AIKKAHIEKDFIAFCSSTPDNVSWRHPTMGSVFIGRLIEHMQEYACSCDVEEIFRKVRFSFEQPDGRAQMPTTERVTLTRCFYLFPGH
Method: 1. Enzyme Assay with UV-visible Substrate
This assay is run using an Succinyl-Tyr-Val-Ala-Asp-p-Nitroanilide substrate. Synthesis of analogous substrates is described by L. A. Reiter (Int. J. Peptide Protein Res., 43, pp. 87-96 (1994)). The assay mixture contains:
65 μl buffer (10 mM Tris, 1 mM DTT, 0.1% CHAPS @ pH 8.1)
10 μl ICE (50 nM final concentration to give a rate of ˜1 mOD/min)
5 μl DMSO/Inhibitor mixture
20 μl 400 μM Substrate (80 μM final concentration)
100 μl total reaction volume
The visible ICE assay is run in a 96-well microtiter plate. Buffer, ICE and DMSO (if inhibitor is present) are added to the wells in the order listed. The components are left to incubate at room temperature for 15 minutes starting at the time that all components are present in all wells. The microtiter plate reader is set to incubate at 37° C. After the 15 minute incubation, substrate is added directly to the wells and the reaction is monitored by following the release of the chromophore (pNA) at 405-603 nm at 37° C. for 20 minutes. A linear fit of the data is performed and the rate is calculated in mOD/min. DMSO is only present during experiments involving inhibitors, buffer is used to make up the volume to 100 μl in the other experiments.
For determination of enzyme inhibition constants (Ki) or the mode of inhibition (competitive, uncompetitive or noncompetitive), the rate data determined in the enzyme assays at varying inhibitor concentrations are computer-fit to standard enzyme kinetic equations (see I. H. Segel, Enzyme Kinetics, Wiley-Interscience, 1975).

[2] = system: IL-1β production in human whole blood; assay: Whole blood assay for IL-1β production; assay type: cell-based; conditions: LPS-stimulated human whole blood, IL-1β by ELISA
Method: Whole Blood Assay for IL-1β Production
The whole blood assay is a simple method for measuring the production of IL-1β (or other cytokines) and the activity of potential inhibitors. The complexity of this assay system, with its full complement of lymphoid and inflammatory cell types, spectrum of plasma proteins and red blood cells is an ideal in vitro representation of human in vivo physiologic conditions.
Set incubator or water bath at 30° C. Aliquot 0.25 ml of blood into 1.5 ml eppendorf tubes. Note: be sure to invert the whole blood sample tubes after every two aliquots. Differences in replicates may result if the cells sediment and are not uniformly suspended. Use of a positive displacement pipette will also minimize differences between replicate aliquots.
Prepare drug dilutions in sterile pyrogen-free saline by serial dilution. A dilution series which brackets the apparent Ki for a test compound determined in an ICE inhibition assay is generally used for the primary compound screen. For extremely hydrophobic compounds, prepare compound dilutions in fresh plasma obtained from the same blood donor or in PBS-containing 5% DMSO to enhance solubility.
Add 25 μl test compound dilution or vehicle control and gently mix the sample. Then add 5.0 μl LPS solution (250 ng/ml stocked prepared fresh: 5.0 ng/ml final concentration LPS), and mix again. Incubate the tubes at […] in a water bath for 16-18 hr with occasional mixing. Alternatively, the tubes can be placed in a rotator set at 4 rpm for the same incubation period. This assay should be set up in duplicate or triplicate with the following controls: negative control—no LPS; positive control—no test inhibitor; vehicle control—the highest concentration of DMSO or compound solvent used in the experiment. Additional saline is added to all control tubes to normalize volumes for both control and experimental whole blood test samples.
After the incubation period, whole blood samples are centrifuged for 10 minutes at ˜2000 rpm in the microfuge, plasma is transferred to a fresh microfuge tube and centrifuged at 1000×g to pellet residual platelets if necessary. Plasma samples may be stored frozen at −70° C. prior to assay for cytokine levels by ELISA.
R & D Systems (614 McKinley Place N.E. Minneapolis, Minn. 55413) Quantikine kits may be used for measurement of IL-1β and TNF-α. The assays are performed according to the manufacturer's directions. IL-1β levels of ˜1-5 ng/ml in positive controls among a range of individuals may be observed. A 1:200 dilution of plasma for all samples is usually sufficient for experiments for ELISA results to fall on the linear range of the ELISA standard curves. It may be necessary to optimize standard dilutions if you observe differences in the whole blood assay. Nerad, J. L. et al., J. Leukocyte Biol., 52, pp. 687-692 (1992).

[3] = system: mature IL-1β in human PBMC; assay: PBMC cell assay (IL-1β assay with human peripheral blood mononuclear cells); assay type: cell-based; conditions: LPS-stimulated human PBMC, mature IL-1β by ELISA
From the text: IL-1β Assay with a Mixed Population of Human Peripheral Blood Mononuclear Cells (PBMC) or Enriched Adherent Mononuclear Cells
Processing of pre-IL-1β by ICE can be measured in cell culture using a variety of cell sources. Human PBMC obtained from healthy donors provides a mixed population of lymphocyte subtypes and mononuclear cells that produce a spectrum of interleukins and cytokines in response to many classes of physiological stimulators. Adherent mononuclear cells from PBMC provides an enriched source of normal monocytes for selective studies of cytokine production by activated cells.
An initial dilution series of test compound in DMSO or ethanol is prepared, with a subsequent dilution into RPMI-10% FBS media (containing 2 mM L-glutamine, 10 mM HEPES, 50 U and 50 ug/ml pen/strep) respectively to yield drugs at 4×the final test concentration containing 0.4% DMSO or 0.4% ethanol. The final concentration of DMSO is 0.1% for all drug dilutions. A concentration titration which brackets the apparent Ki for a test compound determined in an ICE inhibition assay is generally used for the primary compound screen.
Generally 5-6 compound dilutions are tested and the cellular component of the assay is performed in duplicate, with duplicate ELISA determinations on each cell culture supernatant.
Buffy coat cells isolated from one pint human blood (yielding 40-45 ml final volume plasma plus cells) are diluted with media to 80 ml and LeukoPREP separation tubes (Becton Dickinson) are each overlaid with 10 ml of cell suspension. After 15 min centrifugation at 1500-1800×g, the plasma/media layer is aspirated and then the mononuclear cell layer is collected with a Pasteur pipette and transferred to a 15 ml conical centrifuge tube (Corning). Media is added to bring the volume to 15 ml, gently mix the cells by inversion and centrifuge at 300×g for 15 min. The PBMC pellet is resuspended in a small volume of media, the cells are counted and adjusted to 6×10^6 cells/ml.
For the cellular assay, 1.0 ml of the cell suspension is added to each well of a 24-well flat bottom tissue culture plate (Corning), 0.5 ml test compound dilution and 0.5 ml LPS solution (Sigma #L-3012; 20 ng/ml solution prepared in complete RPMI media; final LPS concentration 5 ng/ml). The 0.5 ml additions of test compound and LPS are usually sufficient to mix the contents of the wells. Three control mixtures are run per experiment, with either LPS alone, solvent vehicle control, and/or additional media to adjust the final culture volume to 2.0 ml. The cell cultures are incubated for 16-18 hr at 37° C. in the presence of 5% CO2.
At the end of the incubation period, cells are harvested and transferred to 15 ml conical centrifuge tubes. After centrifugation for 10 min at 200×g, supernatants are harvested and transferred to 1.5 ml Eppendorf tubes. It may be noted that the cell pellet may be utilized for a biochemical evaluation of pre-IL-1β and/or mature IL-1β content in cytosol extracts by Western blotting or ELISA with pre-IL-1β specific antisera.
PBMC are isolated and prepared as described above. Media (1.0 ml) is first added to wells followed by 0.5 ml of the PBMC suspension. After a one hour incubation, plates are gently shaken and nonadherent cells aspirated from each well. Wells are then gently washed three times with 1.0 ml of media and final resuspended in 1.0 ml media. The enrichment for adherent cells generally yields 2.5-3.0×10^5 cells per well. […]

[4] = In vivo bioavailability determination (oral dosing to rats); conditions: rat
Method: In vivo Bioavailability Determination
The drugs (10-100 mg/kg) were dosed orally to rats (10 mL/kg) in ethanol/PEG/water, β-cyclodextrin, labrosol/water or cremophor/water. Blood samples were drawn from the carotid artery at 0.25, 0.50, 1, 1.5, 2, 3, 4, 6, and 8 hours after dosing, centrifuged to separate plasma and stored at −70° C. until analyzed. Aldehyde concentrations were determined using HPLC/MS. Pharmacokinetic analysis of data was performed by non-linear regression using RStrip (MicroMath Software, UT). Drug availability values may be determined as follows: (AUC of drug after oral prodrug dosing/AUC of drug after i.v. dosing of drug)×(dose i.v./dose p.o.)×100%.

[5] = system: IL-1β; assay: LPS-induced IL-1β production in mice; assay type: in vivo, mouse; conditions: PO @ 100 mg/kg, compound given 1 hour relative to LPS challenge
Method: In vivo Acute Assay for Efficacy as Anti-inflammatory Agent
LPS-Induced IL-1β Production
Efficacy is evaluated in CD1 mice (n is 6 per condition, for example) challenged with LPS (20 mg/kg IP). The test compounds are prepared in olive oil:DMSO:ethanol (90:5:5) and administered by IP injection one hour after LPS. Blood is collected seven hours after LPS challenge. Serum IL-1β levels are measured by ELISA.
Compounds may also be administered by oral gavage to assess absorption.
We obtained inhibition data in Table 5 using the methods described in Example 12. Efficacy for Prodrugs in LPS-Induced IL-1β Production in Mice. Time of compound administration relative to time of LPS challenge was 1 hour. Dose of compound was PO @ 100 mg/kg.

Compound	Ki [1] [nM]	IC50 [2] [nM]	IC50 [3] [nM]	blood levels of drug when dosed orally ([4]; oral prodrug dosing)	Cmax ([4]; oral, dose 50 mg/kg, aldehyde (drug) concentration after prodrug dosing) [ng/mL]	% Inhibition of IL-1β [5] [%]
O=C[C@H](CC(=O)O)NC(=O)CN1C(=O)[C@@H](NC(=O)c2nccc3ccccc23)COc2ccccc21 [Compound 6a]	22	> 20000	1000			
O=C[C@H](CC(=O)O)NC(=O)CN1C(=O)[C@@H](NC(=O)c2nccc3ccccc23)CS(=O)(=O)c2ccccc21 [Compound 19a]	140	9500	770			
(3S)-2,5-Dioxo-3-(Isoquinolin-3-oyl)amino-2,3,4,5-tetrahyo-1H-1-benzazepine-N-((2RS, 3S)-2-benzyloxy-5-oxo-tetrahydrofuran-3-yl)-1-acetamide [Compound 16b]				significant blood levels of drug	6100	53
(3S)-3-(Isoquinolin-1-oyl)amino-4-oxo-2,3,4,5-tetrahydo-5H-1,5-benzothiazepine-N-((2RS, 3S)-2-benzyloxy-5-oxo-tetrahydrofuran-3-yl)-5-acetamide [Compound 10b]						74
(3S)-3-(Isoquinolin-1-oyl)amino-4-oxo-2,3,4,5-tetrahydro-5H-1,5-benzoxazepine-N-[(2RS, 3S)-2-benzyloxy-5-oxo-tetrahydrofuran-3-yl]-5-acetamide [Compound 5a]						58

Further lines, with some results ahead:

Ki [1] [nM]	IC50 [2] [nM]	Compound	IC50 [3] [nM]	blood levels of drug when dosed orally ([4]; oral prodrug dosing)	Cmax ([4]; oral, dose 50 mg/kg, aldehyde (drug) concentration after prodrug dosing) [ng/mL]	% Inhibition of IL-1β [5] [%]
20	> 20000	O=C[C@H](CC(=O)O)NC(=O)CN1C(=O)[C@@H](NC(=O)c2c[nH]c3ccccc23)COc2ccccc21 [Compound 6c]	650			
7.5	8800	Cc1cc(C(=O)N[C@H]2CSc3ccccc3N(CC(=O)N[C@H](C=O)CC(=O)O)C2=O)cc(C)c1O [Compound 11a, (3S)-3-[(3S)-3-(3,5-Dimethyl-4-hydroxybenzoyl)amino-4-oxo-2,3,4,5-tetrahydro-5H-1,5-benzothiazepine-5-acetylamino]-4-oxo-butyric acid]				
14	19000	O=C[C@H](CC(=O)O)NC(=O)CN1C(=O)[C@@H](NC(=O)c2nccc3ccccc23)CSc2ccccc21 [Compound 11b]	800			
12	3200	Cc1cc(C(=O)N[C@H]2CC(=O)c3ccccc3N(CC(=O)N[C@H](C=O)CC(=O)O)C2=O)cc(C)c1O [Compound 17a, (3S)-3-[(3S)-2,5-Dioxo-3-(3,5-dimethyl-4-hydroxybenzoyl)amino-2,3,4,5-tetrahydro-1H-1-benzazepine-1-acetylamino]-4-oxo-butyric acid]				
45	> 20000	O=C[C@H](CC(=O)O)NC(=O)CN1C(=O)[C@@H](NC(=O)c2nccc3ccccc23)CC(=O)c2ccccc21 [Compound 17b, (3S)-3-[(3S)-2,5-Dioxo-3-(isoquinolin-1-oyl)amino-2,3,4,5-tetrahydro-1H-1-benzazopine-1-acetylamino]-4-oxo-butyric acid.]	1720			
